Values quoted from earlier work in US11884694B2, “Non-caloric sweeteners and methods for synthesizing” (Conagen Inc., priority 2014, dated 2024).

settings: sweetness compared with sucrose

**Q.** For `C=C1C[C@@]23CC[C@H]4[C@@](C)(CCC[C@@]4(C)C(=O)O[C@@H]4O[C@H](CO)[C@@H](O)[C@H](O)[C@H]4O)[C@@H]2CC[C@]1(O[C@@H]1O[C@H](CO)[C@@H](O)[C@H](O[C@@H]2O[C@H](CO)[C@@H](O)[C@H](O)[C@H]2O)[C@H]1O[C@@H]1O[C@@H](C)[C@H](O)[C@@H](O)[C@H]1O)C3` [Rebaudioside C], which “times sweeter than sucrose” value is on record?
**A.** 40-60 times

**Q.** Which “times sweeter than sucrose” value does the source give for `C=C1C[C@@]23CC[C@H]4[C@@](C)(CCC[C@@]4(C)C(=O)O[C@@H]4O[C@H](CO)[C@@H](O)[C@H](O)[C@H]4O)[C@@H]2CC[C@]1(O[C@@H]1O[C@H](CO)[C@@H](O)[C@H](O)[C@H]1O[C@@H]1O[C@@H](C)[C@H](O)[C@@H](O)[C@H]1O)C3` [Dulcoside A] here?
**A.** about 30 times

**Q.** With `C=C1C[C@@]23CC[C@H]4[C@@](C)(CCC[C@@]4(C)C(=O)O[C@@H]4O[C@H](CO)[C@@H](O)[C@H](O)[C@H]4O)[C@@H]2CC[C@]1(O[C@@H]1O[C@H](CO)[C@@H](O)[C@H](O)[C@H]1O[C@@H]1O[C@H](CO)[C@@H](O)[C@H](O)[C@H]1O)C3` [stevioside, Stevioside] as the compound, how does the “times sweeter than sucrose” value read?
**A.** 100-150 times
